Measurements from patent US9518107B2, “Pharmaceutical compositions containing polypeptides derived from α-1 antitrypsin and methods of use thereof” (YISSUM RESEARCH DEVELOPMENT COMPANY OF THE HEBREW …, priority 2010, dated 2016).

Tests used:
[1] = test system: Female NZBW/F1 mice; assay: Spontaneous lupus-like syndrome in NZBW/F1 mice (second SLE model); type: in vivo
Method: Female NZBW/F1 mice develop a lupus-like syndrome spontaneously. UBE (SEQ ID NO:2) (0.3 μg/kg) was administered to female NZBW/F1 mice daily (except for Saturday and Holidays), starting at the indicated time point (170 days) (n=10). Urine was obtained by spontaneous urination and the levels of protein (mg/dl) in the urine were evaluated throughout the treatment period using commercial sticks.
Quantitative histopathology analysis of the kidneys and lungs were also performed for this model (FIG. 12A-D). Kidneys were removed from control and UBE treated mice (0.3 lug/kg) then fixed in formalin, sliced, and stained by H&E. Representative histophathologies of the control versus UBE treated mice is shown FIGS. 12A versus 12B at 10× magnification, respectively. Note glomerular sclerosis (GS), thickening glomerular mesangium (G), protein accumulation in tubular lumen (PC), interstitial fibrosis (I) and perivascular lymphoid infiltration (lymphoid) in the control (12A) while normal appearance of kidney in the UBE-treated group (12B). The quantitative histopathology analysis with regard to tubular and interstitial damage is presented in FIG. 12C and FIG. 12D, respectively.
Quantitative histopathology analysis of the lungs was also performed for this model (FIG. 12E-G). Representative histophathologies of control versus UBE treated mice (0.3 μg/kg) is shown FIGS. 12E versus 12F at 10× magnification, respectively. Note heavy perivascular lymphoid infiltration (lymphoid) in the control samples (FIG. 12E) while normal appearance in the UBE-treated group (FIG. 12F).
In order to determine the levels of anti-dsDNA antibodies, blood was obtained by cardiac puncture of the NZBW/F1 mice at the indicated endpoint in UBE treatment, and the serum levels of anti-dsDNA antibodies and BLys (B lymphocyte stimulator) levels were determined by ELISA using a commercial kit (R&D Systems, Minneapolis, Minn., USA).
To evaluate the effect of UBE on lymphocyte function in NZBW/F1 mice, spleen cells and blood samples were isolated from control and UBE-treated (0.3 microgram per kilogram) mice and subjected to FACS analysis of double negative CD4−CD8− (expressed as percent CD3+) (FIG. 14).
Blood cells were similarly evaluated and representative results from control and UBE treated animals (0.3 μg/kg) are shown in FIGS. 14D and 14E, respectively.

[2] = test system: peritoneal macrophages; assay: Oxidative burst of peritoneal macrophages (luminol luminescence, phorbol myristate acetate); type: cell-based, female C57BL/6 mice; conditions: 1 μg/ml UBE; FIG. 19
Method: Macrophages were harvested by peritoneal lavage of female C57BL/6 mice i.p. injected with thioglycolate. 0.2 ml cells (3×10^5/ml), luminol (200 μM), horseradish peroxidase (1.0 unit/ml) and UBE were suspended in Hank's balanced salt solution (HBSS) (final concentrations of the peptide in the reaction mixture are indicated in the figure). The reaction started by the addition of 1 μM phorbol myristate acetate. The reaction was performed in a 96-well plate. Luminescence was measured by Tecan spectrofluoro Plus.

[3] = test system: male MRL/lpr mice; assay: Advanced stage of Systemic Lupus Erythematosus in MRL/lpr mice; type: in vivo; conditions: 1 μg/kg thrice a week from age of 22 weeks, 22 days; FIG. 10
Method: UBE (SEQ ID NO: 2; 1 μg/kg) was administered to male MRL/lpr mice thrice a week, starting at age of 22 weeks. At this age the mice are acutely affected and show a high level of proteinuria. Urine was obtained by spontaneous urination and the animals' urinary protein levels (mg/dl) were evaluated throughout the treatment period (22 days) using a commercial stick.

[4] = test system: Female NZBW/F1 mice; assay: Spontaneous lupus-like syndrome in NZBW/F1 mice (second SLE model); type: in vivo; conditions: FIG. 11B
[5] = test system: arthritic mice; assay: Collagen type II induced arthritis, joint swelling; type: in vivo; conditions: 1 μg/kg thrice a week, from five days after second immunization; FIG. 16
Method: Chick collagen type II (2.0 mg) was incubated overnight in 0.01 M acetic acid (0.9 ml) at 4° C. The resulting solution was emulsified with equal volume (1.0 ml) of […] Freund's Adjuvant containing 5.0 mg heat-killed Mycobacterium tuberculosis. Thereafter, the animal was injected intradermally in the tail base with 100 μl of the emulsion and an additional immunization was repeated 21 days later. Five days later, UBE or UBE1 polypeptide were administered (1 μg/kg thrice a week). The animals were evaluated for the difference in joint thickness (mm) between the indicated time intervals and prior to immunization.

[6] = test system: Female Balb/C mice; assay: Ovalbumin-induced asthma in mice, eosinophils in bronchoalveolar lavage; type: in vivo; conditions: UBE i.n. 50 ng/mouse on days 24 and 27, one hour before OVA; day 29; FIG. 21
Method: 20 ul of 5% Ovalbumin (OVA) was added to 8.75 ml of sterile saline, which was then added stepwise to a solution of 1.25 ml of 40 mg/ml ImjectAlum (Pierce), and subjected to rocking at room temperature for 30-60 minutes, to facilitate optimal alum absorption to the Ovalbumin (Alum/Ova). Female Balb/C mice were then injected with 200 ul of Alum/Ova i.p, according to the following protocol:
On Days 0 and 14, mice were injected i.p with OVA/Alum.
On day 24 mice were injected intranasally (i.n.) with. UBE/saline (50 ng/50 μl/mouse, 25 μl to each nostril) and then after one hour, mice were injected i.n with OVA (50 μg/50 μl/mouse, 25 μl to each nostril).
On Day 27, mice were injected i.n. UBE/saline (50 ng/50 μl/mouse, 25 μl to each nostril) and then 1 hour subsequently were again injected i.n. with OVA (50 μg/50 μl/mouse). Mice were then sacrificed on day 29, and bronchoalveolar fluid was obtained by lung lavage (1 ml of 10% FCS-heat inactivated in PBS), and the percent of eosinophils seen in lavage fluid versus white cell count was ascertained by microscopic evaluation of smears.

[7] = test system: HaCaT keratinocytes; assay: HaCaT keratinocyte proliferation (MTT assay); type: cell-based; conditions: FIG. 18
Method: Cells (1.6×10^4/ml) were seeded (100 μl) in culture medium in 96 well plate. Twenty four hours later UBE was added at the indicated concentrations. Cell viability was determined by the MTT assay.

[8] = test system: T-lymphocytes; assay: Lymphocyte proliferation in vitro (viable cell count, trypan blue); type: cell-based, female C57B1/6 mice; conditions: 96 hours incubation; FIG. 17
Method: T-lymphocytes were harvested from lymph nodes of female C57B1/6 mice by standard methodology and seeded (1.3×10^6 cells/ml) in 96 well plate […]. Thereafter, UBE was added to the culture at the indicated concentrations and incubated for 96 hours (6% CO2, 37° C.). The medium containing the polypeptide was replaced after 48 hours of incubation. Viable cells (trypan blue staining) were counted a light microscope.

Sequence: SMPPIVRFDHPFLFIIFEEHTQSPLFVGKVVDPTHK (listed as Mus musculus) [UBE, 36-mer peptide corresponding to residues 378-413 of Mus musculus alpha-1-antitrypsin (serpin a1c)]
- rise in urinary protein levels (proteinuria) ([1]; UBE 0.3 μg/kg daily from 170 days, FIG. 11A): abrogated
- pathological score of the tubular areas (kidney histopathology) ([1]; UBE 0.3 μg/kg, FIG. 12C): significant reduction
- pathological score of the interstitial areas (kidney histopathology) ([1]; UBE 0.3 μg/kg, FIG. 12D): significant reduction
- pathological score, lung parenchymal damage ([1]; UBE 0.3 μg/kg, FIG. 12G): significant reduction
- serum BLys (B lymphocyte stimulator) level, ELISA ([1]; UBE 0.3 μg/kg, FIG. 13A): significant reduction
- serum anti-dsDNA antibody level, ELISA ([1]; UBE 0.3 μg/kg, FIG. 13B): significant reduction
- double negative CD4−CD8− cells, FACS ([1]; blood, UBE 0.3 μg/kg, FIG. 14F): dramatically reduced
- double negative CD4−CD8− cells (percent CD3+), FACS ([1]; spleen, UBE 0.3 μg/kg, FIG. 14C): dramatically reduced
- oxidative burst of peritoneal macrophages (luminescence) [2]: suppressed
- proteinuria (urinary protein) [3]: significant reduction
- proteinuria ([4]; UBE 1 μg/kg): reduced proteinuria in a significant manner
- proteinuria ([4]; UBE 3 μg/kg): reduced proteinuria in a significant manner
- joint swelling (difference in joint thickness) [5]: reduction in joint swelling
- eosinophil concentration in lavage fluid (percent of eosinophils versus white cell count) [6]: dramatic reduction
- effect on cultured keratinocyte proliferation (cell viability, MTT) [7]: anti-proliferative effect
- concentration of maximal effect on T cell proliferation [8]: 1 ng/mL
